Test results taken from patent US8143249B2 (Gilead Sciences, Inc., priority 2005, dated 2012).

Experiment: Oral pharmacokinetics/bioavailability of prodrugs vs parent (compound 1) in rats, plasma LC/MS/MS
Type: in vivo, Sprague Dawley rats
Settings: for Cmax: Sprague Dawley
Protocol: The following studies were conducted in order to compare the pharmacokinetics of the parent A2B adenosine receptor antagonist and its corresponding prodrug. The parent compound chosen was the compound of formula A in which R^1 is n-propyl, R^2 is ethyl, R^3 is hydrogen, and R^4 is 3-trifluoromethylphenyl; that is:
The studies were carried out in Sprague Dawley rats. The test compounds were administered orally by gavage to groups of three rats using a single oral dose of the test compound at 2 and 30 mg/kg. All oral doses were prepared either as a suspension in DMSO/ethanol/PEG300/0.1% N-methyl-D-glucamine or as a suspension in 0.5% methylcellulose in water. Blood samples were obtained serially from each rat at 0, 5, 15, 30 min, and then 1, 1.5, 2, 4, 6, 8, and 24 hrs post-dose.
Concentrations of compound 1 and/or the corresponding prodrug in rat plasma were determined by a HPLC tandem mass spectrometric (LC/MS/MS) method. Briefly, 0.1 mL of plasma sample was treated with 0.5 mL of acetonitrile:methanol (9:1, v/v) mixture containing 25 ng of compound 1 having deuterated ethyl at the 3-position in place of ethyl. (Internal Standard, I.S.) to precipitate the protein. The mixture was filtered through a 96-well filter and filtrate was collected and evaporated to dryness on a 96-well plate evaporator. The residue was then reconstituted with 400 μL 20% methanol and subjected to LC/MS/MS analysis. Quantification of compound 1 was achieved by mass spectrometry using Multiple Reaction Monitoring (MRM) mode, monitoring the transitions at m/z 447.1>159.1 for compound 1 and 452.1>159.1 for I.S. The quantification limit of the assay was 0.38 ng/mL for the analysis of the oral dose samples and 10 ng/mL during the analysis of the intravenous dose samples using 0.1 mL of plasma.
Non-compartmental pharmacokinetic parameters were determined using a commercial program WinNonLin Professional, Version 4.1 (Pharsight, Mountain View, Calif.). Plasma concentration at below level of detection was assumed to be zero for the calculation of means and pharmacokinetic parameters.
For oral administration, the maximum concentration (Cmax) and time to reach Cmax (Tmax), AUC(0-1), AUC(0-8) and bioavailability (% F) were determined. Oral bioavailability was determined from the ratio of dose-adjusted AUC(0-8) of the respective oral dose and the mean AUC(0-8) values of the 0.1 and 0.5 mg/kg intravenous doses.
The results are presented below in tabular form. The table provides results obtained by using a suspension of the test compound in a suspension in DMSO/ethanol/PEG300/0.1% N-methyl-D-glucamine in rats.

[1] = unchanged prodrug in rat plasma after single oral gavage dose, suspension in DMSO/ethanol/PEG300/0.1% N-methyl-D-glucamine

Row | SMILES | Cmax [1] [ng/mL] | Prodrug Mean Dose Adjusted AUC [1] | plasma levels of parent compound 1 following oral dosing, compared with oral dosing of the parent itself (rats, oral, result in words) | Prodrug Mean Cmax [1] [ng/mL] | prodrug seen in plasma unmetabolized (rats, oral, result in words)
1 | CCCC(=O)OCn1c(-c2cnn(Cc3cccc(C(F)(F)F)c3)c2)nc2c1c(=O)n(CCC)c(=O)n2CC [Compound 2, [3-ethyl-2,6-dioxo-1-propyl-8-(1-{[3-(trifluoromethyl)phenyl]methyl}pyrazol-4-yl)-1,3,7-trihydropurin-7-yl]methyl butanoate] | < 5 | Not detectable | – | – | –
2 | CCCn1c(=O)c2c(nc(-c3cnn(Cc4cccc(C(F)(F)F)c4)c3)n2COC(C)=O)n(CC)c1=O [Compound 3, [3-ethyl-2,6-dioxo-1-propyl-8-(1-{[3-(trifluoromethyl)phenyl]methyl}pyrazol-4-yl)-1,3,7-trihydropurin-7-yl]methyl acetate] | < 5 | Not detectable | – | – | –
3 | CCCn1c(=O)c2c(nc(-c3cnn(Cc4cccc(C(F)(F)F)c4)c3)n2COC(=O)C(C)(C)C)n(CC)c1=O [Compound 4, [3-ethyl-2,6-dioxo-1-propyl-8-(1-{[3-(trifluoromethyl)phenyl]methyl}pyrazol-4-yl)-1,3,7-trihydropurin-7-yl]methyl-2,2-dimethylpropanoate] | < 5 | Not detectable | – | – | –
4 | CCCn1c(=O)c2c(nc(-c3cnn(Cc4cccc(C(F)(F)F)c4)c3)n2COC(=O)N(C)CCN(C)C)n(CC)c1=O [Compound 5] | – | Not detectable | approximately the same | <5 | –
5 | CCCn1c(=O)c2c(nc(-c3cnn(Cc4cccc(C(F)(F)F)c4)c3)n2COP(=O)(O)O)n(CC)c1=O [Compound 6, [3-ethyl-2,6-dioxo-1-propyl-8-(1-{[3-(trifluoromethyl)phenyl]methyl}-pyrazol-4-yl)(1,3,7-trihydropurin-7-yl)]methyl dihydrogen phosphate] | < 5 | Not detectable | – | – | detected in the plasma unmetabolized
6 | CCCn1c(=O)c2c(nc(-c3cnn(Cc4cccc(C(F)(F)F)c4)c3)n2COC(=O)NCCN(C)C)n(CC)c1=O [Compound 10] | < 5 | Not detectable | – | – | detected in the plasma unmetabolized
